Reference: ChEMBL document CHEMBL4364319 (Eur J Med Chem, 2019)
Each block holds one compound with its values, some of them ahead of it. Activity calls are given as the source filed them. The rule behind the calls is not given here.

Legend:
[1] = Cytotoxicity against human LO2 cells assessed as cell viability at 50 uM after 48 hrs by MTT assay; type: cell-based, L02; details: read-out: Activity
[2] = Cmax in Sprague-Dawley rat at 5 mg/kg, iv measured after 48 hrs by LC-MS/MS analysis; type: ADME, organism-based; design: dose 5 mg/kg, route intravenous; details: in vivo
[3] = Cmax in Sprague-Dawley rat at 10 mg/kg, po via gavage after 48 hrs by LC-MS/MS analysis; type: ADME, organism-based; design: dose 10 mg/kg, route oral; details: in vivo
Mus musculus [4] = test: Anti-diabetic activity in 12 hrs-fasted ICR mouse assessed as reduction in blood glucose AUC (0 to 120 mins)at 10 mg/kg, po pretreated for 60 mins followed by glucose challenge and measured after 120 mins post glucose challenge by OGTT relative to control; type: functional; design: scale not given: the % may be the effect or the level left
[5] = AUC (0 to infinity) in Sprague-Dawley rat at 10 mg/kg, po via gavage after 48 hrs by LC-MS/MS analysis; type: ADME, organism-based; design: dose 10 mg/kg, route oral, time infinity; details: in vivo
Dipeptidyl peptidase 9 = Dipeptidyl peptidase 9 (Homo sapiens, UniProt Q86TI2); test: Inhibition of DPP9 (unknown origin) using Gly-Pro-AMC as substrate preincubated for 15 mins followed by substrate addition measured at 60 secs interval for 20 mins by fluorometic method
Chain of Dipeptidyl peptidase 9 (Q86TI2 whole entry): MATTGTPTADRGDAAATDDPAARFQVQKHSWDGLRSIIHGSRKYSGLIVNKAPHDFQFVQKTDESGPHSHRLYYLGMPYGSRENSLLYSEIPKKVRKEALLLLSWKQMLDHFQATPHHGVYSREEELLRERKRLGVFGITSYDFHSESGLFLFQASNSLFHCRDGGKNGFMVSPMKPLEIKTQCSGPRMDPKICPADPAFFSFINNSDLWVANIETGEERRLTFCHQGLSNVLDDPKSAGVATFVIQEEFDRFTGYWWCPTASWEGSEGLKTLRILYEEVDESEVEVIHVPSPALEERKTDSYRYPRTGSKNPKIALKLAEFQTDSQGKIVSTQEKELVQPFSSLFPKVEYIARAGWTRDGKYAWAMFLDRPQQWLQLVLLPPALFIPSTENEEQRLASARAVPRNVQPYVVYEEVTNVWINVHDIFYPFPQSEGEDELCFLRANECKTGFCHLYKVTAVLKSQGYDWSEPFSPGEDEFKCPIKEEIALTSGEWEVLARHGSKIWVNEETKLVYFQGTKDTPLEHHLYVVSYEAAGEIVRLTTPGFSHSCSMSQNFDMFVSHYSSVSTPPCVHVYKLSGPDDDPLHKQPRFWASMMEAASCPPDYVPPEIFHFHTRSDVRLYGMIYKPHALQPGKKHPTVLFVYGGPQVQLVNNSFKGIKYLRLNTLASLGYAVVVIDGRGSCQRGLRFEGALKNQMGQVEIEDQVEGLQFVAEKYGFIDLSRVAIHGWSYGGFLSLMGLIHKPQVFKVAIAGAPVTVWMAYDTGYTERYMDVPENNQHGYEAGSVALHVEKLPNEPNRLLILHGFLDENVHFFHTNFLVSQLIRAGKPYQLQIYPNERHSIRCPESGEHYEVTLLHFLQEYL

[6] = Stability in PBS at pH 7.4 assessed as compound remaining at 1 uM after 120 mins by LC-MS/MS analysis relative to control; type: physicochemical; details: read-out: Stability
[7] = AUC (0 to infinity) in Sprague-Dawley rat at 5 mg/kg, iv measured after 48 hrs by LC-MS/MS analysis; type: ADME, organism-based; design: dose 5 mg/kg, route intravenous, time infinity; details: in vivo
[8] = Clearance in Sprague-Dawley rat at 10 mg/kg, po via gavage after 48 hrs by LC-MS/MS analysis; type: ADME, organism-based; details: in vivo
[9] = Oral bioavailability in Sprague-Dawley rat at 10 mg/kg via gavage after 48 hrs by LC-MS/MS analysis; type: ADME, organism-based; details: in vivo
[10] = Clearance in Sprague-Dawley rat at 5 mg/kg, iv measured after 48 hrs by LC-MS/MS analysis; type: ADME, organism-based; details: in vivo
[11] = Half life in Sprague-Dawley rat at 10 mg/kg, po via gavage after 48 hrs by LC-MS/MS analysis; type: ADME, organism-based; details: in vivo
[12] = Stability in Sprague-Dawley rat plasma assessed as compound remaining at 1 uM measured up to 120 mins by LC-MS/MS analysis relative to control; type: ADME, cell-free; details: read-out: Stability
Dipeptidyl peptidase 8 = Dipeptidyl peptidase 8 (Homo sapiens, UniProt Q6V1X1); test: Inhibition of DPP8 (unknown origin) using Gly-Pro-AMC as substrate preincubated for 15 mins followed by substrate addition measured at 60 secs interval for 20 mins by fluorometic method
Chain of Dipeptidyl peptidase 8 (Q6V1X1 whole entry): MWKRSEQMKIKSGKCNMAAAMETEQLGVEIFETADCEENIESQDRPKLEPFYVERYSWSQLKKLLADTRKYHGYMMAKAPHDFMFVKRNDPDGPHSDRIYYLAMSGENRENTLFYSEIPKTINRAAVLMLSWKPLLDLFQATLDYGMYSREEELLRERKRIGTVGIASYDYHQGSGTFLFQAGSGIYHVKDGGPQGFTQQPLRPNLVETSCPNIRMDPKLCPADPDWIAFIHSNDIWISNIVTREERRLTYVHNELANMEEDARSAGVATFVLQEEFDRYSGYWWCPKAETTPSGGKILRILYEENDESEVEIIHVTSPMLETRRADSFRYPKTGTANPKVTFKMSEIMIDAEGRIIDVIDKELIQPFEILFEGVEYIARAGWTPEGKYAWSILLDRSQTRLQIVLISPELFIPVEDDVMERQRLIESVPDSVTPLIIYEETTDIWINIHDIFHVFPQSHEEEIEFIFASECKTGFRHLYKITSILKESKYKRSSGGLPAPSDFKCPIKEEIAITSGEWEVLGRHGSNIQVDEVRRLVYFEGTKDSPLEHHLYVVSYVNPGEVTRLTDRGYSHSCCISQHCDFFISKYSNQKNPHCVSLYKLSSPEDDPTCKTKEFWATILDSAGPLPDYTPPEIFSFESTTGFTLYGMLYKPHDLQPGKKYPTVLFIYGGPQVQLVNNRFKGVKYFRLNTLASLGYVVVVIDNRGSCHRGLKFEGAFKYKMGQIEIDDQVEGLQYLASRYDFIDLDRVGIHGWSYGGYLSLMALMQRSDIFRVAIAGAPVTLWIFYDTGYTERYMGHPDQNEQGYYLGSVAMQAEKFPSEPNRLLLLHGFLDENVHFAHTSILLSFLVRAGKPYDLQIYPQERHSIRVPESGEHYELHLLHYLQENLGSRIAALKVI

[13] = Tmax in Sprague-Dawley rat at 10 mg/kg, po via gavage after 48 hrs by LC-MS/MS analysis; type: ADME, organism-based; details: in vivo
Rattus norvegicus [14] = organism: Rattus norvegicus; test: animal or person; details: Sprague-Dawley, po, 2 h, read-out: INH
Description: Anti-diabetic activity in Sprague-Dawley rat assessed as redcution in DPP4 inhibition in plasma at 10 mg/kg, po via gavage administered as single dose measured at 2 hrs post dose by fluorometric assay relative to control

[15] = Half life in Sprague-Dawley rat at 5 mg/kg, iv measured after 48 hrs by LC-MS/MS analysis; type: ADME, organism-based; details: in vivo
[16] = Clearance in Sprague-Dawley rat assessed as (R)-2-((8-(3-aminopiperidin-1-yl)-7-(but-2-yn-1-yl)-3-methyl-2,6-dioxo-2,3,6,7-tetrahydro-1H-purin-1-yl)methyl)-5-chlorobenzoic acid level at 10 mg/kg, po via gavage after 48 hrs by LC-MS/MS analysis; type: ADME, organism-based; details: in vivo
[17] = Cmax in Sprague-Dawley rat assessed as (R)-2-((8-(3-aminopiperidin-1-yl)-7-(but-2-yn-1-yl)-3-methyl-2,6-dioxo-2,3,6,7-tetrahydro-1H-purin-1-yl)methyl)-5-chlorobenzoic acid level at 10 mg/kg, po via gavage after 48 hrs by LC-MS/MS analysis; type: ADME, organism-based; design: dose 10 mg/kg, route oral; details: in vivo
[18] = Tmax in Sprague-Dawley rat assessed as (R)-2-((8-(3-aminopiperidin-1-yl)-7-(but-2-yn-1-yl)-3-methyl-2,6-dioxo-2,3,6,7-tetrahydro-1H-purin-1-yl)methyl)-5-chlorobenzoic acid level at 10 mg/kg, po via gavage after 48 hrs by LC-MS/MS analysis; type: ADME, organism-based; details: in vivo
[19] = AUC (0 to infinity) in Sprague-Dawley rat assessed as (R)-2-((8-(3-aminopiperidin-1-yl)-7-(but-2-yn-1-yl)-3-methyl-2,6-dioxo-2,3,6,7-tetrahydro-1H-purin-1-yl)methyl)-5-chlorobenzoic acid level at 10 mg/kg, po via gavage after 48 hrs by LC-MS/MS analysis; type: ADME, organism-based; design: dose 10 mg/kg, route oral, time infinity; details: in vivo
[20] = Oral bioavailability in Sprague-Dawley rat assessed as (R)-2-((8-(3-aminopiperidin-1-yl)-7-(but-2-yn-1-yl)-3-methyl-2,6-dioxo-2,3,6,7-tetrahydro-1H-purin-1-yl)methyl)-5-chlorobenzoic acid level at 10 mg/kg via gavage after 48 hrs by LC-MS/MS analysis; type: ADME, organism-based; details: in vivo
Rattus norvegicus [21] = test: Anti-diabetic activity in Sprague-Dawley rat assessed as redcution in DPP4 inhibition in plasma at 10 mg/kg, po via gavage administered as single dose measured up to 12 hrs post dose by fluorometric assay relative to control; details: read-out: INH
[22] = Half life in Sprague-Dawley rat assessed as (R)-2-((8-(3-aminopiperidin-1-yl)-7-(but-2-yn-1-yl)-3-methyl-2,6-dioxo-2,3,6,7-tetrahydro-1H-purin-1-yl)methyl)-5-chlorobenzoic acid level at 10 mg/kg, po via gavage after 48 hrs by LC-MS/MS analysis; type: ADME, organism-based; details: in vivo
Rattus norvegicus [23] = test: Anti-diabetic activity in Sprague-Dawley rat assessed as redcution in DPP4 inhibition in plasma at 10 mg/kg, po via gavage administered as single dose measured after 12 hrs post dose by fluorometric assay; type: functional, organism-based
[24] = Cytotoxicity against human LO2 cells assessed as cell viability at 20 uM after 48 hrs by MTT assay; type: cell-based, L02; details: read-out: Activity
[25] = Stability in Sprague-Dawley rat plasma assessed as drug degradation at 1 uM after 120 mins by LC-MS/MS analysis relative to control relative to control; type: ADME, cell-free; details: read-out: Drug degradation
[26] = Stability in Sprague-Dawley rat plasma assessed as drug degradation at 1 uM after 5 mins by LC-MS/MS analysis relative to control relative to control; type: ADME, cell-free; details: read-out: Drug degradation
[27] = Drug degradation in PBS at pH 7.4 at 1 uM after 120 mins by LC-MS/MS analysis relative to control; type: physicochemical; details: read-out: Drug degradation
Mus musculus [28] = test: Anti-diabetic activity in db/db mouse assessed as reduction in blood glucose AUC (0 to 120 mins) at 10 mg/kg, po dosed once daily for 3 weeks following 12 hrs fasting and glucose challenge measured up to 120 mins relative to control; type: functional; design: scale not given: the % may be the effect or the level left
Mus musculus [29] = test: Anti-diabetic activity in 8 hrs-fasted C57BL/6 db/db mouse assessed as reduction in blood glucose AUC (0 to 120 mins) at 10 mg/kg, po pretreated for 60 mins followed by glucose challenge and measured after 120 mins post glucose challenge by OGTT relative to control; type: functional; design: scale not given: the % may be the effect or the level left

SMILES: CC#CCn1c(N2CCC[C@@H](N)C2)nc2c1c(=O)n(Cc1ccc(Cl)cc1C(=O)O)c(=O)n2C
viability at 48 h, 50 µM [1]: > 90%
Cmax [2]: 30600 ng/mL
Cmax [3]: 2340 ng/mL
Activity (Mus musculus [4]): 14.3%
AUC [5]: 1301.87 µg·h/L
IC50 (Dipeptidyl peptidase 9): > 100 µM
remaining at 2 h, 1 µM [6]: 101%
AUC(0-inf) [7]: 9620 ng·h/mL
CL [8]: 0.82 L/h/kg
bioavailability [9]: 6.76%
clearance [10]: 8.83 mL/min/kg
half-life [11]: 106 min
remaining at 2 h, 1 µM [12]: 102%
IC50 (Dipeptidyl peptidase 8): > 100 µM
Tmax [13]: 10.2 min
inhibition in vivo at 10 mg/kg (Rattus norvegicus [14]): > 80%
half-life [15]: 314 min

SMILES: CC#CCn1c(N2CCC[C@@H](N)C2)nc2c1c(=O)n(Cc1ccc(Cl)cc1C(=O)OCC)c(=O)n2C
CL [16]: 0.35 L/h/kg
Cmax [17]: 401.06 µg/L
Tmax [18]: 30 min
AUC [19]: 3.00117 µg·h/mL
Cmax [3]: 508 ng/mL
AUC [5]: 4536.25 µg·h/L
IC50 (Dipeptidyl peptidase 9): > 100 µM
remaining at 2 h, 1 µM [6]: 99.5%
F [20]: 15.6%
CL [8]: 0.23 L/h/kg
half-life [11]: 481 min
remaining at 2 h, 1 µM [12]: 70.2%
inhibition in vivo at 10 mg/kg (Rattus norvegicus [21]): > 80%
IC50 (Dipeptidyl peptidase 8): > 100 µM
Tmax [13]: 30 min
t1/2 [22]: 6.97 h
Activity (Rattus norvegicus [23]): Active
viability at 48 h, 20 µM [24]: 80%

SMILES: CC#CCn1c(N2CCC[C@@H](N)C2)nc2c1c(=O)n(Cc1cccc(F)c1C(=O)OC)c(=O)n2C
IC50 (Dipeptidyl peptidase 9): > 100 µM
IC50 (Dipeptidyl peptidase 8): > 100 µM

SMILES: CC#CCn1c(N2CCC[C@@H](N)C2)nc2c1c(=O)n(Cc1ccc(Cl)cc1C(=O)OCc1oc(=O)oc1C)c(=O)n2C
metabolised at 2 h, 1 µM [25]: 100%
remaining at 2 h, 1 µM [6]: 12%
metabolised at 5 min, 1 µM [26]: 50%
degraded at 2 h, 1 µM [27]: 100%
remaining at 2 h, 1 µM [12]: 1.25%

SMILES: CC#CCn1c(N2CCC[C@@H](N)C2)nc2c1c(=O)n(Cc1c(Cl)cccc1C(=O)OC)c(=O)n2C
IC50 (Dipeptidyl peptidase 9): > 100 µM
IC50 (Dipeptidyl peptidase 8): > 100 µM

SMILES: Cn1c(=O)cc(N2CCC[C@@H](N)C2)n(Cc2ccccc2C#N)c1=O [ALOGLIPTIN]
Activity (Mus musculus [4]): 10.35%
inhibition in vivo at 10 mg/kg (Rattus norvegicus [21]): > 80%
Activity (Mus musculus [28]): 13.2%
Activity (Mus musculus [29]): 45%

Now from value to compound, other results behind:

IC50 (Dipeptidyl peptidase 9): > 100 µM
IC50 (Dipeptidyl peptidase 8): > 100 µM
SMILES: CC#CCn1c(N2CCC[C@@H](N)C2)nc2c1c(=O)n(Cc1ccc(F)cc1C(=O)O)c(=O)n2C

Cmax [2]: 65500 ng/mL
IC50 (Dipeptidyl peptidase 9): > 100 µM
remaining at 2 h, 1 µM [6]: 99.2%
AUC(0-inf) [7]: 23500 ng·h/mL
bioavailability [9]: < 7%
clearance [10]: 3.67 mL/min/kg
remaining at 2 h, 1 µM [12]: 98.3%
IC50 (Dipeptidyl peptidase 8): > 100 µM
half-life [15]: 345 min
SMILES: CC#CCn1c(N2CCC[C@@H](N)C2)nc2c1c(=O)n(Cc1ccc(Br)cc1C(=O)O)c(=O)n2C
viability at 48 h, 50 µM [1]: > 90%

IC50 (Dipeptidyl peptidase 9): > 100 µM
remaining at 2 h, 1 µM [6]: 98.4%
remaining at 2 h, 1 µM [12]: 62.2%
IC50 (Dipeptidyl peptidase 8): > 100 µM
SMILES: CC#CCn1c(N2CCC[C@@H](N)C2)nc2c1c(=O)n(Cc1ccc(Br)cc1C(=O)OCC)c(=O)n2C
viability at 48 h, 20 µM [24]: 50%

metabolised at 2 h, 1 µM [25]: 100%
remaining at 2 h, 1 µM [6]: 8.32%
metabolised at 5 min, 1 µM [26]: 50%
degraded at 2 h, 1 µM [27]: 100%
remaining at 2 h, 1 µM [12]: 2.11%
SMILES: CC#CCn1c(N2CCC[C@@H](N)C2)nc2c1c(=O)n(Cc1ccc(Br)cc1C(=O)OCc1oc(=O)oc1C)c(=O)n2C

IC50 (Dipeptidyl peptidase 9): > 100 µM
IC50 (Dipeptidyl peptidase 8): > 100 µM
SMILES: CC#CCn1c(N2CCC[C@@H](N)C2)nc2c1c(=O)n(Cc1cc(Br)ccc1C(=O)O)c(=O)n2C
